US8389557B2, “Triazole derivatives useful as Axl inhibitors” (Rigel Pharmaceuticals, Inc., priority 2005, dated 2013)

Molecular target: T1, Axl (Homo sapiens, UniProt P30530)
T1 construct: endogenous in cells; host or cells: HeLa cells
T1 sequence (P30530 26-894): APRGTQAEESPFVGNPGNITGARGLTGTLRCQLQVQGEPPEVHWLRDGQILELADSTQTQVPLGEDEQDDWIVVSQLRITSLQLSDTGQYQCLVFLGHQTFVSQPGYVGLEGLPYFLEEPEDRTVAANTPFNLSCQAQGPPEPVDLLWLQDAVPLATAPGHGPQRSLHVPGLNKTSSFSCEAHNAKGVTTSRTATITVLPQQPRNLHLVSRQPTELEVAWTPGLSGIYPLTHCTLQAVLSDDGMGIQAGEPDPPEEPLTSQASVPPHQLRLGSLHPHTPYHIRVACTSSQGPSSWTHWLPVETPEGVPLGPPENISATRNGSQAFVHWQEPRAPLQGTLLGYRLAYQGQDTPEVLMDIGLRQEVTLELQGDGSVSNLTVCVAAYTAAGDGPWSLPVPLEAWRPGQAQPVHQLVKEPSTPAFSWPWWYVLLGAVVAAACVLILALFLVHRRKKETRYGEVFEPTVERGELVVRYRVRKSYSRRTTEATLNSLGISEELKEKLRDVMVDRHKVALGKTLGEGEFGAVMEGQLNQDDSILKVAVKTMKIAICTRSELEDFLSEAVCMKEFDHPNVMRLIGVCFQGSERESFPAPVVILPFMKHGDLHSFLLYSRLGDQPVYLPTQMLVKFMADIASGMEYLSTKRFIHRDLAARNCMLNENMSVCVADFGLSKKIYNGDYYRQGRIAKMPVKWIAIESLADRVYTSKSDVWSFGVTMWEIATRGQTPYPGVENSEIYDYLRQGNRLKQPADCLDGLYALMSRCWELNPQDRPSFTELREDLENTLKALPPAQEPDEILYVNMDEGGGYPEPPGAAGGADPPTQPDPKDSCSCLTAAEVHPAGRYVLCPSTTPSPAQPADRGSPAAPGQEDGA
Assay: Phospho-Akt in-cell Western assay (inhibition of Axl activity)
Type: cell-based
Method in brief: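 HeLa cells on poly-L-lysine, starved 24 h in 0.5% FCS DMEM with Axl/Fc 500 ng/mL, pre-treated with compound 1 h at 37° C. Axl stimulated 5 min by anti-Axl/anti-mouse antibody cross-linking. Fixed cells probed with anti-phospho-Akt and HRP secondary, chemiluminescence read.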

[1] = inhibition of Axl activity, Table 1
[2] = inhibition of Axl activity, phospho-Akt in-cell Western assay, Table 1
[3] = Table 7, Hela cells, Axl antibody cross-linking stimulation, phospho-Akt chemiluminescence
[4] = Table 8, Hela cells, Axl antibody cross-linking stimulation, phospho-Akt chemiluminescence
[5] = Table 2, Hela cells, Axl antibody cross-linking stimulation, phospho-Akt chemiluminescence
[6] = Table 3, Hela cells, Axl antibody cross-linking stimulation, phospho-Akt chemiluminescence

Compound: COc1ccccc1C(=O)n1nc(Nc2ccc3c(c2)OCCO3)nc1N [compound 106, 5-amino-3-(1,4-benzodioxan-6-yl)amino-1-(2-(methyloxy)phenyl)carbonyl-1H-1,2,4-triazole]
- IC50 [1]: > 20 µM

Compound: CC(C)(C)OC(=O)NCc1ccc(C(=O)n2nc(Nc3ccc(OCCN4CCCC4)cc3)nc2N)cc1 [compound 278, 5-amino-1-[4-((tert-butoxycarbonyl)aminomethyl)phenyl]carbonyl-3-[4-[2-(pyrrolidin-1-yl)ethoxy]phenylamino]-1H-1,2,4-triazole]
- IC50 [2]: < 1 µM

Compound: CCCCOc1ccc(NC(=O)n2nc(Nc3ccc(OCCN4CCCCC4)cc3)nc2N)cc1 [compound 46, 5-amino-N-(4-butoxyphenyl)-3-[4-[2-(piperidin-1-yl)ethoxy]phenylamino]-1H-1,2,4-triazole-1-carboxamide]
- IC50 [3]: 1 to 10 µM

Compound: Nc1nc(Nc2ccc(OCCN3CCCCC3)cc2)n(C(=O)NC2CCCC2)n1 [compound 190, 3-amino-N-cyclopentyl-5-[4-[2-(piperidin-1-yl)ethoxy]phenylamino]-1H-1,2,4-triazole-1-carboxamide]
- IC50 [4]: > 20 µM

Compound: CC(C)(C)Oc1cccc(C(=O)n2nc(Nc3ccc(OCCN4CCCC4)cc3)nc2N)c1 [compound #18, 5-Amino-3-[4-[2-(pyrrolidin-1-yl)ethoxy]phenylamino]-1-(3-(tert-butoxy)phenyl)carbonyl-1H-1,2,4-triazole]
- IC50 [2]: < 1 µM

Compound: Nc1nc(Nc2ccc(OCCN3CCCCC3)cc2)n(C(=O)NC2CCCCC2)n1 [compound 189, 3-amino-N-cyclohexyl-5-[4-[2-(piperidin-1-yl)ethoxy]phenylamino]-1H-1,2,4-triazole-1-carboxamide]
- IC50 [4]: 1 to 10 µM

Compound: Cc1cccc(C(=O)n2nc(Nc3cccc(OCC(=O)O)c3)nc2N)c1 [compound 224, 5-amino-3-(3-hydroxycarbonylmethoxy)phenylamino-1-(3-methylphenyl)carbonyl-1H-1,2,4-triazole]
- IC50 [1]: > 20 µM

Compound: CC(C)Oc1ccc(C(=O)n2nc(Nc3ccc(N4CCCCC4)cc3)nc2N)cc1 [compound #26, 5-Amino-1-(4-(iso-propoxy)phenyl)carbonyl-3-[4-(piperidin-1-yl)phenylamino]-1H-1,2,4-triazole]
- IC50 [2]: 1 to 10 µM

Compound: CC(C)c1ccc(C(=O)n2nc(N)nc2Nc2ccc3c(c2)OCCO3)cc1 [compound 233, 3-amino-5-(1,4-benzodioxan-6-yl)amino-1-(4-iso-propylphenyl)carbonyl-1H-1,2,4-triazole]
- IC50 [5]: > 20 µM

Compound: Nc1nc(Nc2ccc(OCCN3CCCCC3)cc2)nn1C(=O)c1ccc2c(c1)OCO2 [compound #13, 5-Amino-1-(1,3-benzodioxol-5-yl)carbonyl-3-[4-[2-(piperidin-1-yl)ethoxy]phenylamino]-1H-1,2,4-triazole]
- IC50 [2]: < 1 µM

Compound: CC(C)(C)OC(=O)Nc1ccc(C(=O)n2nc(Nc3ccc(OCCN4CCCC4)cc3)nc2N)cc1 [compound 270, 5-amino-1-(4-(tert-butoxycarbonylamino)phenyl)carbonyl-3-[4-[2-(pyrrolidin-1-yl)ethoxy]phenylamino]-1H-1,2,4-triazole]
- IC50 [2]: < 1 µM

Compound: CC(=O)Nc1ccc(C(=O)n2nc(Nc3ccc4c(c3)OCCO4)nc2N)cc1 [compound 246, 1-[(4-Acetylamino)phenyl]carbonyl-5-amino-3-(1,4-benzodioxan-6-yl)-amino-1H-1,2,4-triazole]
- IC50 [1]: 1 to 10 µM

Compound: Cc1cccc(C(=O)n2nc(Nc3cccc(OCC(=O)NCCOC4CCCCO4)c3)nc2N)c1 (stereo not shown) [compound 223]
- IC50 [1]: 1 to 10 µM

Compound: Nc1nc(Nc2ccc3c(c2)OCCO3)nn1C(=O)c1ccc(OCc2ccccc2)cc1 [compound 142, 5-amino-1-(4-(benzyloxy)phenyl)carbonyl-3-(1,4-benzodioxan-6-yl)amino-1H-1,2,4-triazole]
- IC50 [1]: 1 to 10 µM

Compound: COc1cc(NC(=O)n2nc(N)nc2Nc2ccc(OCCN3CCCCC3)cc2)cc(OC)c1 [compound 188, 3-amino-N-(3,5-dimethoxyphenyl)-5-[4-[2-(piperidin-1-yl)ethoxy]phenylamino]-1H-1,2,4-triazole-1-carboxamide]
- IC50 [4]: 1 to 10 µM

Compound: Cc1ccc(C(=O)n2nc(Nc3ccccc3O)nc2N)cc1 [compound 211, 5-amino-3-[2-(hydroxyl)phenylamino]-1-(4-methylphenyl)carbonyl-1H-1,2,4-triazole]
- IC50 [1]: > 20 µM

Compound: Nc1nc(Nc2ccc(OCCN3CCCC3)cc2)nn1C(=O)c1ccc2nc[nH]c2c1 [compound #25, 5-Amino-1-(benzimidazol-6-yl)carbonyl-3-[4-[2-(pyrrolidin-1-yl)ethoxy]phenylamino]-1H-1,2,4-triazole]
- IC50 [6]: 1 to 10 µM

Compound: Nc1nc(Nc2ccc(OCCN3CCCC3)cc2)nn1C(=O)c1ccc2nn[nH]c2c1 [compound 281, 5-amino-1-(1H-benzo[d][1,2,3]triazol-5-yl)carbonyl-3-[4-[2-(pyrrolidin-1-yl)ethoxy]phenylamino]-1H-1,2,4-triazole]
- IC50 [6]: 10 to 20 µM

Compound: CC(C)Oc1ccc(C(=O)n2nc(Nc3ccc(OCCN4CCCCC4)cc3)nc2N)cc1 [compound 163]
- IC50 [1]: < 1 µM

Compound: CC(C)(C)OC(=O)n1nc(Nc2ccc(N3CCCCC3)cc2)nc1N [compound 201, 5-amino-3-[4-(piperidin-1-yl)phenylamino]-1-(tert-butoxycarbonyl)-1H-1,2,4-triazole]
- IC50 [3]: > 20 µM

Compound: Nc1nc(Nc2ccc(N3CCOCC3)cc2)nn1C(=O)c1cccc([N+](=O)[O-])c1 [compound 72, 5-amino-3-(4-(morpholin-4-yl)phenylamino)-1-(3-(nitro)phenyl)carbonyl-1H-1,2,4-triazole]
- IC50 [1]: 1 to 10 µM

Compound: CNC(=O)COc1cccc(Nc2nc(N)n(C(=O)c3cccc(C)c3)n2)c1 [compound 146, 5-amino-3-[3-(methylaminocarbonylmethoxy)phenylamino]-1-(3-(methyl)phenyl)carbonyl-1H-1,2,4-triazole]
- IC50 [1]: 1 to 10 µM

Compound: COC(=O)COc1cccc(C(=O)n2nc(Nc3ccc4c(c3)OCCO4)nc2N)c1 [compound 138, 5-amino-3-(1,4-benzodioxan-6-yl)amino-1-[3-(methoxycarbonylmethoxy)phenyl)carbonyl-1H-1,2,4-triazole]
- IC50 [1]: 1 to 10 µM

Compound: COc1c(F)cc(C(=O)n2nc(Nc3ccc(OCCN4CCCC4)cc3)nc2N)cc1F [compound 390, 5-amino-1-(3,5-difluoro-4-methoxyphenyl)carbonyl-3-[4-[2-(pyrrolidin-1-yl)ethoxy]phenylamino]-1H-1,2,4-triazole]
- IC50 [2]: < 1 µM

Compound: Nc1nc(Nc2ccc(OCCN3CCCC3)cc2)nn1C(=O)c1ccc(OCCN2CCOCC2)cc1 [compound 332, 5-amino-1-[4-(2-(morpholin-4-yl)ethoxy)phenyl]carbonyl-3-[4-[2-(pyrrolidin-1-yl)ethoxy]phenylamino]-1H-1,2,4-triazole]
- IC50 [2]: < 1 µM

Compound: CC(C)Oc1ccc(C(=O)n2nc(N)nc2Nc2ccc(N3CCN(C)CC3)cc2)cc1 [compound 360, 3-amino-1-(4-(iso-propoxy)phenyl)carbonyl-5-(4-(4-methylpiperazin-1-yl)phenylamino]-1H-1,2,4-triazole]
- IC50 [5]: 1 to 10 µM

Compound: CC(C)Oc1ccc(C(=O)n2nc(Nc3cccc(OC4CCCC4)c3)nc2N)cc1 [compound 116, 5-amino-3-[3-(cyclopentoxy)phenylamino]-1-(4-(iso-propoxy)phenyl)carbonyl-1H-1,2,4-triazole]
- IC50 [1]: > 20 µM

Compound: CC(C)(C)Oc1ccc(C(=O)n2nc(Nc3ccc(OCCCN4CCCC4)cc3)nc2N)cc1 [compound #15, 5-Amino-3-[4-[3-(pyrrolidin-1-yl)propoxy]phenylamino]-1-(4-(tert-butoxy)phenyl)carbonyl-1H-1,2,4-triazole]
- IC50 [2]: < 1 µM

Compound: Cc1cccc(C(=O)n2nc(Nc3cccc(OCC(=O)NCCO)c3)nc2N)c1 [compound 225, 5-amino-3-[3-((2-hydroxyethyl)aminocarbonylmethoxy)phenyl]amino-1-(3-methylphenyl)carbonyl-1H-1,2,4-triazole]
- IC50 [1]: 1 to 10 µM

Compound: Cc1cc(C)cc(NC(=O)n2nc(Nc3ccc(OCCN4CCCCC4)cc3)nc2N)c1 [compound 199, 5-amino-N-(3,5-(dimethyl)phenyl)-3-[4-[2-(piperidin-1-yl)ethoxy]phenylamino]-1H-1,2,4-triazole-1-carboxamide]
- IC50 [3]: > 20 µM

Compound: Nc1nc(Nc2ccc(OCCN3CC[C@H](F)C3)cc2)nn1C(=O)c1ccc2c(c1)OCCO2 [compound 386, 5-amino-1-(1,4-benzodioxan-6-yl)carbonyl-3-[4-[2-((S)-3-fluoropyrrolidin-1-yl)ethoxy]phenylamino]-1H-1,2,4-triazole]
- IC50 [6]: < 1 µM
